Eight molecules from patent publication US11639372B1, “Zinc-charged peptides for the treatment of cancer and alzheimer's disease” (priority 2021, dated 2023) can be followed below.

Series [1] relates to HT-29 colon cancer cells. Kind of series: apoptosis in HT-29 cells, combination with chemotherapy drugs. The format is cell-based. Particulars: for interaction of chemotherapy drug with the zinc-charged peptide: drug 6 μg per ml 12 hours, then zinc-charged 4H 4 μM for 6 hours. As to the method:
To test this, HT-29 colon cancer cells were pre-incubated with various chemotherapy drugs at 6 μg per ml for 12 hours, then zinc-charged 4H at 4 μM was added for an additional 6 hours. Most chemotherapy drugs take up to 48 hours to see substantial apoptosis, and as such, the cells were pre-incubated with chemotherapy drugs first. The chemotherapy drugs tested included actinomycin (“A”), carmustine (“C”), docorubicin (“Dox”), genistin (“G”), 5-FU, and Tarceva.

The test system of another series is Calu-1 lung cancer cells. Briefly: glycolysis (lactate) inhibition in cell lysate, Calu-1. The format is cell-based. Here is the method: (§1) The zinc-charged peptides ability to inhibit glycolysis in other cancer cell lines, such as lung cancer, compared to their normal counterparts was also tested.
A further series deals with HT-29 cancer cells. Kind of series: biochemical analysis of HT-29 cell lysate (lactate, ATP, G-6-P). The format is cell-based. Here is the method: To determine the mechanism of induction of apoptosis to HT-29 cancer cells by the zinc-charged peptides, a low concentration (1 μM) of zinc-charged 4H was incubated with HT-29 cancer cells, followed by biochemical analysis of the cell lysate of the HT-29 cancer cells.
Furthermore, the decreased lactate was associated with a lower ATP level and a lower Glucose-6-phosphate (G-6-P) level in HT-29 cells.

A short description of series [2]: glycolysis and ATP in brain and muscle of normal mice fed zinc-charged 4H. The format is in vivo. To be noted: 0.5 mg per mouse per day, 5 days, oral. Here is the method:
To further study this observed phenomena in vivo, normal mice were fed with the zinc-charged 4H for five days, and the glycolysis of normal brain cells were studied. FIG. 9 depicts the results of this study. For this study, two groups of mice having four mice per group were compared, one being the control and the other being fed 0.5 mg of zinc-charged 4H per mouse per day for 5 days orally. After 5 days, brain and muscle tissue was collected, homogenized, and assayed for glycolysis rate.
In mice fed with 0.5 mg of zinc-charged 4H for 5 days, the brain glycolysis of these mice was enhanced by 44%.

Series [3] concerns HT-29 colon cancer cells. Briefly: glycolysis (lactate) inhibition in cell lysate, HT-29. The format is cell-based.
Series [4] concerns normal colon cell line CCD18Co. Kind of series: glycolysis (lactate) inhibition in cell lysate, CCD18Co. The format is cell-based.
Series [5] concerns the target T1, hexokinase II (Homo sapiens, UniProt P52789).
T1 sequence (P52789 1-917): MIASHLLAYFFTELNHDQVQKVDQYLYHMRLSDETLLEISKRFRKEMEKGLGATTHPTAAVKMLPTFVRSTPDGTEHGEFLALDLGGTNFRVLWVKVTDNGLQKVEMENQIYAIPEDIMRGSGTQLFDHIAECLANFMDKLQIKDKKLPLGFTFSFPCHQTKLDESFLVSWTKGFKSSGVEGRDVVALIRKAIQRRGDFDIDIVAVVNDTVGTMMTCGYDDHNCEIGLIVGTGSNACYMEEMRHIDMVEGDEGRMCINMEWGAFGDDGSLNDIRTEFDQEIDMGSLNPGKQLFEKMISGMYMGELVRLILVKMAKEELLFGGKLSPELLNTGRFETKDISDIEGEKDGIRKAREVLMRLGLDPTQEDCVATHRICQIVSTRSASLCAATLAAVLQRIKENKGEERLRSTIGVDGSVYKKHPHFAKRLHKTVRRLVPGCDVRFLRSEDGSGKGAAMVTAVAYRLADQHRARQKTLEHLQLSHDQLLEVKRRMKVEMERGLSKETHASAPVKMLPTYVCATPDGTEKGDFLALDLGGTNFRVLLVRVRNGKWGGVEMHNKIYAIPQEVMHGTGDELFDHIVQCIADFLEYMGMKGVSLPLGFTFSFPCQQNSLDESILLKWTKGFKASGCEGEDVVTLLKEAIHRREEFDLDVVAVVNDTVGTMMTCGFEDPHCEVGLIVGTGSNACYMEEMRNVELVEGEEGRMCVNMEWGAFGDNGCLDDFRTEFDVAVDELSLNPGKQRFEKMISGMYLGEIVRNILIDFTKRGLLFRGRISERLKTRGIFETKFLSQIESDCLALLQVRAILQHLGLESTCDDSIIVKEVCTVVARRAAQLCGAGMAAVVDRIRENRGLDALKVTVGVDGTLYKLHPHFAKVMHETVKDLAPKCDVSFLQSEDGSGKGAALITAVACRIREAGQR
Briefly: subcellular hexokinase II activity in HT-29 cells. The format is cell-based. Particulars: HT-29, 1 μM, 5 hours. As to the method: FIGS. 14-16 depicts the testing results validating that the zinc-charged peptides inhibit each of these three bioenergetic pathways. FIG. 14 depicts the subcellular hexokinase II activity in mitochondria, cytosol, and microsome to determine whether the zinc-charged peptides inhibit the hexokinase II activity in mitochondria. For this test, HT-29 cancer cells were incubated with zinc-charged 4H at 1 μM for 5 hours. After incubation, sub-cellular fractions including cytosol, microsome, and mitochondria were prepared and the hexokinase II activity on these sub-cellular fractions were tested.

The subject of a further series is normal WI38 lung cells. Kind of series: glycolysis (lactate) inhibition in cell lysate, WI38. In kind it is cell-based. Here is the method: as §1
The target of series [6] is T1, hexokinase II. Briefly: in vitro hexokinase II assay. In kind it is biochemical. Here is the method: To test confirm that the zinc-charged peptides inhibit hexokinase II resulting in the inhibition of glycolysis, an in vitro hexokinase II assay was performed. FIG. 7 depicts the results of the in vitro hexokinase II assay. In this test, it was observed that hexokinase II was inhibited by zinc-charged 4H in a dose-dependent manner. […] These findings confirm that the zinc-charged peptides inhibit glycolysis at the hexokinase II enzyme level.

Series [7] in a line: water solubility of the peptides. The format is physicochemical. To be noted: uncharged peptide, last amino acid changed.
The test system of series [8] is various cancer cell lines. Kind of series: apoptosis-inducing activity on cancer cell lines (earlier work). Particulars: in vitro cell culture. In kind it is cell-based. The text has this:
Cow milk is known to contain numerous proteins and other beneficial compounds for humans.
Since alpha-lactalbumin is the major milk protein present in milk, this protein was first tested to determine if the bioactive peptides were derived from alpha-Lactalbumin. Purified alpha-lactalbumin was therefore treated with EDTA and zinc acetate.

Series [9] in a line: absorption by gastrointestinal tract (earlier work). In kind it is in vivo. Particulars: before enzymatic digestion with papain.

Numbered stars: 1 amine (or outer) side, 2 acyl side, 3 side chain; on linkers, the order of the positions; unused ones are H or OH. Bridge positions count the residues as written; N and C are the ends. Square brackets hold non-standard residues; d marks the D form. Ends that are not written are not given here. Peptide text beside a SMILES is read from it. I, II: the chains in the order shown. Actinocin(9to1) = Cc1c2oc3c(C)ccc(C(=O)[*:1])c3nc-2c(C(=O)[*:2])c(N)c1=O; NMeV = CN[C@H](C(=O)O)C(C)C; Sar = CNCC(=O)O

Take `Cc1c2oc3c(C)ccc(C(=O)N[C@@H]4C(=O)N[C@H](C(C)C)C(=O)N5CCC[C@H]5C(=O)N(C)CC(=O)N(C)[C@@H](C(C)C)C(=O)O[C@@H]4C)c3nc-2c(C(=O)N[C@@H]2C(=O)N[C@H](C(C)C)C(=O)N3CCC[C@H]3C(=O)N(C)CC(=O)N(C)[C@@H](C(C)C)C(=O)O[C@@H]2C)c(N)c1=O` [actinomycin] (I: T[dV]P[Sar][NMeV] / II: T[dV]P[Sar][NMeV]; ester I:1-I:C, II:1-II:C; linker I:N-II:N via Actinocin(9to1)): the “interaction of chemotherapy drug with the zinc-charged peptide” value (shortened to “interaction of chemotherapy drug”) in the series on HT-29 colon cancer cells [1] is “synergistic”.

Turning to “zinc-charged 4H: peptide E-Y-G-L-F-Q-I-S-N-K-L (SEQ. ID NO. 1) charged with zinc ions by EDTA then zinc acetate treatment (EYGLFQISNKL; also: charged with zinc ions)”, the inhibition of glycolysis is listed as 11.1% in the series with Calu-1 lung cancer cells, “up to 34.7%” with HT-29 colon cancer cells [3], 10.5% in [4] and 0% in the series with normal WI38 lung cells. For the same molecule, the “lactate lower than control cells” value in the series on HT-29 cancer cells (1 μM, HT-29 cell lysate) is 81.4%. Moreover, in the series with HT-29 cancer cells (HT-29, after 6 hours of incubation), the “reduction of intracellular G-6-P level” value came to 39.6%. Further, in series [2], the “enhancement of brain glycolysis” value came to 44%. Besides, in [2], the “increase in brain ATP level” value came out at 31.4%. Also, in series [2], the “increase of muscle glycolysis” value stood at 15%. Besides, the “inhibition of mitochondria associated hexokinase II activity” value with hexokinase II [5] is on record as 53%. The “percentage of apoptosis in HT-29 cells when added to chemotherapy drugs” value with HT-29 colon cancer cells [1] (zinc-charged 4H 4 μM, 6 hours after 12 hours drug pre-incubation) is recorded as “significantly increased”. Also, the results for the “hexokinase II inhibition” value in the series with hexokinase II [6] (5 μM), with hexokinase II [6] (10 μM) and with hexokinase II [6] (20 μM) were 28.6%, 79.1% and 94.6%, respectively.

On to “EYGLFQISNKK [4H3, E-Y-G-L-F-Q-I-S-N-K-K]”, for which, in [7], the “water solubility compared with 4H” value is on record as “more water-soluble”.

Regarding `O=c1[nH]cc(F)c(=O)[nH]1` [5-FU], in the series on HT-29 colon cancer cells [1], the “interaction of chemotherapy drug” value was “synergistic”.

For “zinc-bound alpha-lactalbumin: purified alpha-lactalbumin treated with EDTA and zinc acetate”, the “apoptosis-inducing activity on various cancer cell lines” value in [8] was “contain apoptosis-inducing activity”. Also, the “absorption by gastrointestinal tract” value in [9] is “unable to be absorbed”.

For `O=c1c(-c2ccc(O)cc2)coc2cc(O[C@@H]3O[C@H](CO)[C@@H](O)[C@H](O)[C@H]3O)cc(O)c12` [genistin], in the series on HT-29 colon cancer cells [1], the “interaction of chemotherapy drug” value is listed as “synergistic”.

For `O=NN(CCCl)C(=O)NCCCl` [carmustine], the “interaction of chemotherapy drug” value in the series with HT-29 colon cancer cells [1] was “synergistic”.

With `COc1cccc2c1C(=O)c1c(O)c3c(c(O)c1C2=O)C[C@@](O)(C(=O)CO)C[C@@H]3O[C@H]1C[C@H](N)[C@H](O)[C@H](C)O1` [doxorubicin], the “interaction of chemotherapy drug” value in the series on HT-29 colon cancer cells [1] is “synergistic”.
